Source: ChEMBL document CHEMBL1144507, “Synthesis and antifungal activity of (Z)-5-arylidenerhodanines” (2007)
≈ marks a conversion by molar mass, not a printed value.

Columns and labels:
Trichophyton benhamiae [1] = assay: Antifungal activity against Trichophyton mentagrophytes C738 after 48 hrs; format: functional, Arthroderma benhamiae
Candida tropicalis = assay: Antifungal activity against Candida tropicalis C131-1997 after 48 hrs; format: functional
Candida albicans [2] = assay: Antifungal activity against Candida albicans ATCC 10231 after 48 hrs; format: functional; settings: ATCC 10231, 48 h
Aspergillus flavus = assay: Antifungal activity against Aspergillus flavus ATCC 9170 after 48 hrs; format: functional; settings: ATCC 9170, 48 h
Nakaseomyces glabratus = assay: Antifungal activity against Candida glabrata C115-2000 after 48 hrs; format: functional
Aspergillus fumigatus = assay: Antifungal activity against Aspergillus fumigatus ATCC 26934 after 48 hrs; format: functional; settings: ATCC 26934, 48 h
Cryptococcus neoformans [3] = assay: Antifungal activity against […] IM 042074 after 48 hrs; format: functional
Candida albicans [4] = assay: Antifungal activity against Candida albicans C129-2000 after 48 hrs; format: functional
Saccharomyces cerevisiae = assay: Antifungal activity against Saccharomyces cerevisiae ATCC 9763 after 48 hrs; format: functional; settings: ATCC 9763, 48 h
Candida albicans [5] = assay: Antifungal activity against Candida albicans C126-2000 after 48 hrs; format: functional
Trichophyton benhamiae [6] = assay: Antifungal activity against Trichophyton mentagrophytes C539 after 48 hrs; format: functional, Arthroderma benhamiae
Pichia kudriavzevii = assay: Antifungal activity against Candida krusei C117-2000 after 48 hrs; format: functional
Candida parapsilosis = assay: Antifungal activity against Candida parapsilosis C124-2000 after 48 hrs; format: functional; settings: Lodderomyces parapsilosis
Candida albicans [7] = assay: Antifungal activity against Candida albicans C128-2000 after 48 hrs; format: functional
Nannizzia gypsea = assay: Antifungal activity against Microsporum gypseum C115 after 48 hrs; format: functional
Cryptococcus neoformans [8] = assay: Antifungal activity against […] IM 983036 after 48 hrs; format: functional
Cryptococcus neoformans [9] = assay: Antifungal activity against […] IM 972751 after 48 hrs; format: functional
Cryptococcus neoformans [10] = assay: Antifungal activity against […] IM 031706 after 48 hrs; format: functional
Candida albicans [11] = assay: Antifungal activity against Candida albicans C125-2000 after 48 hrs; format: functional
Candida albicans [12] = assay: Antifungal activity against Candida albicans C130-2000 after 48 hrs; format: functional
Trichophyton benhamiae [13] = assay: Antifungal activity against Trichophyton mentagrophytes ATCC 9972 after 48 hrs; format: functional, Arthroderma benhamiae; settings: ATCC 9972, 48 h
Trichophyton benhamiae [14] = assay: Antifungal activity against Trichophyton mentagrophytes C364 after 48 hrs; format: functional, Arthroderma benhamiae
Torulaspora delbrueckii = assay: Antifungal activity against Candida coliculosa C122-2000 after 48 hrs; format: functional
Trichophyton rubrum = assay: Antifungal activity against Trichophyton rubrum C113 after 48 hrs; format: functional
Aspergillus niger = assay: Antifungal activity against Aspergillus niger ATCC 9029 after 48 hrs; format: functional; settings: ATCC 9029, 48 h
Candida albicans [15] = assay: Antifungal activity against Candida albicans C127-2000 after 48 hrs; format: functional
Cryptococcus neoformans [16] = assay: Antifungal activity against […] IM 052470 after 48 hrs; format: functional
Cryptococcus neoformans [17] = assay: Antifungal activity against Cryptococcus neoformans ATCC 32264 after 48 hrs; format: functional; settings: ATCC 32264, 48 h
Cryptococcus neoformans [18] = assay: Antifungal activity against […] IM 00319 after 48 hrs; format: functional
Trichophyton benhamiae [19] = assay: Antifungal activity against Trichophyton mentagrophytes C108 after 48 hrs; format: functional, Arthroderma benhamiae
Clavispora lusitaniae = assay: Antifungal activity against Candida lusitaniae C131-2000 after 48 hrs; format: functional
Trichophyton benhamiae [20] = assay: Antifungal activity against Trichophyton mentagrophytes C943 after 48 hrs; format: functional, Arthroderma benhamiae
Cryptococcus neoformans [21] = assay: Antifungal activity against […] IM 961951 after 48 hrs; format: functional
Cryptococcus neoformans [22] = assay: Antifungal activity against […] IM 972724 after 48 hrs; format: functional
Cryptococcus neoformans [23] = assay: Antifungal activity against […] ATCC 32264 after 48 hrs; format: functional; settings: ATCC 32264, 48 h
Kluyveromyces marxianus = assay: Antifungal activity against Candida kefyr C123-2000 after 48 hrs; format: functional
Cryptococcus neoformans [24] = assay: Antifungal activity against […] IM 031631 after 48 hrs; format: functional; settings: Cryptococcus neoformans, 48 h
Cryptococcus neoformans [25] = assay: Antifungal activity against Candida neoformans IM 983040 after 48 hrs; format: functional

## O=C1NC(=S)S/C1=C\c1ccc(F)cc1
Trichophyton benhamiae [1]
  MIC: 1.95 µg/mL (≈ 8.15 µM)
Candida tropicalis
  MFC: 15.6 µg/mL (≈ 65.2 µM)
  MIC: 7.8 µg/mL (≈ 32.6 µM)
  MIC50: 3.9 µg/mL (≈ 16.3 µM)
  MIC80: 7.8 µg/mL (≈ 32.6 µM)
Candida albicans [2]
  MIC: 7.8 µg/mL (≈ 32.6 µM)
Aspergillus flavus
  MIC: 250 µg/mL (≈ 1040 µM)
Nakaseomyces glabratus
  MFC: 51.6 µg/mL (≈ 216 µM)
  MIC: 7.8 µg/mL (≈ 32.6 µM)
  MIC50: 3.9 µg/mL (≈ 16.3 µM)
  MIC80: 3.9 µg/mL (≈ 16.3 µM)
Aspergillus fumigatus
  MIC: 250 µg/mL (≈ 1040 µM)
Cryptococcus neoformans [3]
  MFC: 31.2 µg/mL (≈ 130 µM)
  MIC: 7.8 µg/mL (≈ 32.6 µM)
  MIC50: 3.9 µg/mL (≈ 16.3 µM)
  MIC80: 3.9 µg/mL (≈ 16.3 µM)
Candida albicans [4]
  MFC: 31.2 µg/mL (≈ 130 µM)
  MIC: 15.6 µg/mL (≈ 65.2 µM)
  MIC50: 3.9 µg/mL (≈ 16.3 µM)
  MIC80: 7.8 µg/mL (≈ 32.6 µM)
Saccharomyces cerevisiae
  MIC: 7.8 µg/mL (≈ 32.6 µM)
Candida albicans [5]
  MFC: 31.2 µg/mL (≈ 130 µM)
  MIC: 15.6 µg/mL (≈ 65.2 µM)
  MIC50: 3.9 µg/mL (≈ 16.3 µM)
  MIC80: 15.6 µg/mL (≈ 65.2 µM)
Trichophyton benhamiae [6]
  MIC: 1.95 µg/mL (≈ 8.15 µM)
Pichia kudriavzevii
  MFC: 62.5 µg/mL (≈ 261 µM)
  MIC: 31.2 µg/mL (≈ 130 µM)
  MIC50: 3.9 µg/mL (≈ 16.3 µM)
  MIC80: 7.8 µg/mL (≈ 32.6 µM)
Candida parapsilosis
  MFC: 15.6 µg/mL (≈ 65.2 µM)
  MIC: 7.8 µg/mL (≈ 32.6 µM)
  MIC50: 7.8 µg/mL (≈ 32.6 µM)
  MIC80: 3.9 µg/mL (≈ 16.3 µM)
Candida albicans [7]
  MFC: 62.5 µg/mL (≈ 261 µM)
  MIC: 31.2 µg/mL (≈ 130 µM)
  MIC50: 3.9 µg/mL (≈ 16.3 µM)
  MIC80: 15.6 µg/mL (≈ 65.2 µM)
Nannizzia gypsea
  MIC: 15.6 µg/mL (≈ 65.2 µM)
Cryptococcus neoformans [8]
  MFC: 62.5 µg/mL (≈ 261 µM)
  MIC: 15.6 µg/mL (≈ 65.2 µM)
  MIC50: 7.8 µg/mL (≈ 32.6 µM)
  MIC80: 7.8 µg/mL (≈ 32.6 µM)
Cryptococcus neoformans [9]
  MFC: 62.5 µg/mL (≈ 261 µM)
  MIC: 7.8 µg/mL (≈ 32.6 µM)
  MIC50: 1.9 µg/mL (≈ 7.94 µM)
  MIC80: 1.9 µg/mL (≈ 7.94 µM)
Cryptococcus neoformans [10]
  MFC: 31.2 µg/mL (≈ 130 µM)
  MIC: 7.8 µg/mL (≈ 32.6 µM)
  MIC50: 1.9 µg/mL (≈ 7.94 µM)
  MIC80: 3.9 µg/mL (≈ 16.3 µM)
Candida albicans [11]
  MFC: 31.2 µg/mL (≈ 130 µM)
  MIC: 15.6 µg/mL (≈ 65.2 µM)
  MIC50: 7.8 µg/mL (≈ 32.6 µM)
  MIC80: 7.8 µg/mL (≈ 32.6 µM)
Candida albicans [12]
  MFC: 31.2 µg/mL (≈ 130 µM)
  MIC: 15.6 µg/mL (≈ 65.2 µM)
  MIC50: 3.9 µg/mL (≈ 16.3 µM)
  MIC80: 7.8 µg/mL (≈ 32.6 µM)
Trichophyton benhamiae [13]
  MIC: 7.8 µg/mL (≈ 32.6 µM)
Trichophyton benhamiae [14]
  MIC: 0.97 µg/mL (≈ 4.05 µM)
Torulaspora delbrueckii
  MFC: 15.6 µg/mL (≈ 65.2 µM)
  MIC: 7.8 µg/mL (≈ 32.6 µM)
  MIC50: 3.9 µg/mL (≈ 16.3 µM)
  MIC80: 3.9 µg/mL (≈ 16.3 µM)
Trichophyton rubrum
  MIC: 32 µg/mL (≈ 134 µM)
Aspergillus niger
  MIC: 250 µg/mL (≈ 1040 µM)
Candida albicans [15]
  MFC: 31.2 µg/mL (≈ 130 µM)
  MIC: 15.6 µg/mL (≈ 65.2 µM)
  MIC50: 7.8 µg/mL (≈ 32.6 µM)
  MIC80: 15.6 µg/mL (≈ 65.2 µM)
Cryptococcus neoformans [16]
  MFC: 31.2 µg/mL (≈ 130 µM)
  MIC: 7.8 µg/mL (≈ 32.6 µM)
  MIC50: 1.9 µg/mL (≈ 7.94 µM)
  MIC80: 1.9 µg/mL (≈ 7.94 µM)
Cryptococcus neoformans [17]
  MIC: 7.8 µg/mL (≈ 32.6 µM)
Cryptococcus neoformans [18]
  MFC: 15.6 µg/mL (≈ 65.2 µM)
  MIC: 7.8 µg/mL (≈ 32.6 µM)
  MIC50: 1.9 µg/mL (≈ 7.94 µM)
  MIC80: 1.9 µg/mL (≈ 7.94 µM)
Trichophyton benhamiae [19]
  MIC: 1.95 µg/mL (≈ 8.15 µM)
Clavispora lusitaniae
  MFC: 15.6 µg/mL (≈ 65.2 µM)
  MIC: 7.8 µg/mL (≈ 32.6 µM)
  MIC50: 3.9 µg/mL (≈ 16.3 µM)
  MIC80: 3.9 µg/mL (≈ 16.3 µM)
Trichophyton benhamiae [20]
  MIC: 0.97 µg/mL (≈ 4.05 µM)
Cryptococcus neoformans [21]
  MFC: 15.6 µg/mL (≈ 65.2 µM)
  MIC: 7.8 µg/mL (≈ 32.6 µM)
  MIC50: 1.9 µg/mL (≈ 7.94 µM)
  MIC80: 7.8 µg/mL (≈ 32.6 µM)
Cryptococcus neoformans [22]
  MFC: 31.2 µg/mL (≈ 130 µM)
  MIC: 15.6 µg/mL (≈ 65.2 µM)
  MIC50: 3.9 µg/mL (≈ 16.3 µM)
  MIC80: 7.8 µg/mL (≈ 32.6 µM)
Cryptococcus neoformans [23]
  MFC: 31.2 µg/mL (≈ 130 µM)
  MIC: 7.8 µg/mL (≈ 32.6 µM)
  MIC50: 3.9 µg/mL (≈ 16.3 µM)
  MIC80: 7.8 µg/mL (≈ 32.6 µM)
Kluyveromyces marxianus
  MFC: 31.2 µg/mL (≈ 130 µM)
  MIC: 31.2 µg/mL (≈ 130 µM)
  MIC50: 3.9 µg/mL (≈ 16.3 µM)
  MIC80: 7.8 µg/mL (≈ 32.6 µM)
Cryptococcus neoformans [24]
  MIC: 7.8 µg/mL (≈ 32.6 µM)
  MIC50: 1.9 µg/mL (≈ 7.94 µM)
  MIC80: 3.9 µg/mL (≈ 16.3 µM)
Cryptococcus neoformans [24]; read-out: MFC
  MFC: 31.2 µg/mL (≈ 130 µM)
Cryptococcus neoformans [25]
  MFC: 31.2 µg/mL (≈ 130 µM)
  MIC: 15.6 µg/mL (≈ 65.2 µM)
  MIC50: 1.9 µg/mL (≈ 7.94 µM)
  MIC80: 1.9 µg/mL (≈ 7.94 µM)
